Measured values: patent US8894993B2, “Mitochondria-targeted antioxidants” (Natreon Inc., priority 2006, dated 2014)

Key:
[1] = tested on: Catalase activity in liver; experiment: Catalase activity in liver of mice after restraint stress; type: in vivo, Swiss albino mice; conditions: 25 mg/Kg p.o. 7 days, control 3.9
Experimental: (§1) Swiss albino mice (20±2 g) were fed orally with—(a) 3-OH-DBP and (b) 3,8-(OH)2-DBP (each 25 mg/Kg b.w. per day, for 7 days). In case of the controls, only vehicle (0.8% carboxymethyl cellulose in water) was administered for seven days of the experiment. All the animals of all the groups were subjected to restraint stress (for 60 minutes) on the seventh day of the experiment, 2 hours after drug administration, according to a published method [Figueiredo, H. F., Bodie, B. L., Tauchi, M., Dolgas, C. M. and Herman, J. P. 2003. Endocrinology, 144, 5249-5258]. The model was selected in the present experiment, because restraint stress is a widely used model of acute oxidative stress. Immediately after being exposed to stress, the animals were sacrificed, blood was collected for analysis by HPLC of ATP and related nucleotides [Smolenska, Z., Kaznowska, Z., Zarowny, D., Simmonds, H. A. and Smolenski, R. T. 1999. […] AEC (adenylate energy charge) was calculated according to the method of Atkinson and Walton [Atkinson D E & Walton G M, Adenosine triphosphate conservation in metabolic regulation, J Biol Chem, 242 (1967) 3239] and TAN (total adenine nucleotides) was calculated according to an established method [Spencer M K & Katz A, Role of glycogen in control of glycolysis and IMP formation in human muscle during exercise, Am J Physiol, 260 (1991) E859]. […]

[2] = tested on: stress-induced lipid peroxidation of mouse liver mitochondria; experiment: Stress-induced lipid peroxidation of mouse liver mitochondria (thiobarbituric acid reaction); type: in vivo, Swiss albino mice; conditions: oral each 5 mg/Kg b.w. per day for 5 days, hypoxic stress, control 0.495
Experimental: (§2) Swiss albino mice (20±g) were fed orally with—(a) 3,8-(OH)2-DBP; (b) CoQ10; (c) a combination of 3,8-(OH)2-DBP and CoQ10 and (d) 3,8-(OH)2-DBP and CoQ10 in a clathrated form with fusoms (each 5 mg/Kg b.w.), per day, for 5 days. The animals were subjected to hypoxic stress for 1 hour each day for 3 days from the 3rd day of the experiment. After the stipulated time-period, brain and liver of the animals were collected and mitochondria from the liver were separated as described previously (Liu Y, Deng F, Zhao R and Qu S, Chemosphere, 40(8):851-854, 2000). Lipid peroxidation in brain and liver-mitochondria was estimated by the method of Ohkawa et al. (Ohkawa H, Ohishi N and Yagi K, Assay for lipid peroxides in animal tissues by thiobarbituric acid reaction. Anal. Biochem., 95:351-358, 1979).

[3] = tested on: stress-induced lipid peroxidation of mouse brain; experiment: Stress-induced lipid peroxidation of mouse brain (thiobarbituric acid reaction); type: in vivo, Swiss albino mice; conditions: oral each 5 mg/Kg b.w. per day for 5 days, hypoxic stress, control 1.169
Experimental: as §2

[4] = tested on: Superoxide dismutase (SOD) activity in liver; experiment: Superoxide dismutase activity in liver of mice after restraint stress; type: in vivo, Swiss albino mice; conditions: 25 mg/Kg p.o. 7 days, control 0.6
Experimental: as §1

[5] = Inhibition of CoQ-CoQH2 aberrant metabolite formation during red-ox recycling, HPLC; type: physicochemical; conditions: in vitro
Experimental: Methanolic solution of coenzyme Q10 (1 mg/ml) was reduced by NaBH4 to pH 8 when the yellow solution became colorless. About 1 mg of 3,8-(OH)2-DBP was added to the solution and the mixture was analyzed by HPLC at different time intervals (0-80 min). A control CoQ10, without 3,8-(OH)2-DBP, was prepared similarly and analyzed at different time intervals (0-80 min).
Column—NovaPak RP C18 [250×4 mm]
(§3) Mobile phase—Methanol:Acetonitrile:Ethanol 30:30:40
Detection—PDA 275 nm for CoQ10
Reduced CoQ10 (CoQH2) has a tendency to rapidly autoxidize in the presence of air. […] The aberrant metabolites increased rapidly with time (Table 10).

[6] = Stability of reduced CoQ10 (CoQH2) by 3,8-(OH)2-DBP at different pH, HPLC; type: physicochemical
Experimental: Two mg of solid CoQ10 (SRL, India), in an airtight vial was dissolved in 1 ml of methanol. After thorough vortexing, 5 mg of solid NaBH4 (Merck India) was added, 1 mg at a time, to the yellow colored solution of CoQ10 in methanol and kept in an ice-bath for a few minutes. The vial was kept shut to avoid contact with air but opened occasionally to avoid generation of pressure inside due to accumulation of hydrogen. After the reduction reaction, a clear colorless solution was obtained to which methanolic solution of 3,8-(OH)2-DBP with a concentration of 1 mg/ml (>90% pure) was added in a ratio of 1:1 to obtain a final concentration of the mixture—reduced CoQ10 […] DBP 0.5 mg/ml. This solution was analyzed by HPLC for reduced CoQ10 content at different time intervals. A control was prepared in similar fashion except that no DBP was added. The pH of the solutions was determined to be 8 using pH paper. To obtain solutions of reduced CoQ10 with pH 7 and pH 3, aliquots of concentrated HCl were added to the methanolic solution of reduced CoQ10 at pH 8. Afterwards, a solution of DBP was added and analysis by HPLC at different time intervals was conducted, as before.
as §3
Detection—PDA 290 nm for reduced CoQ10

Structure (SMILES): O=c1oc2cc(O)ccc2c2ccc(O)cc12 [3,8-(OH)2-DBP, 3,8-dihydroxydibenzo-α-pyrone]
- Catalase activity in liver [1]: 3.4 U/mg tissue
- OD Values at 532 nm (lipid peroxidation) [2]: 0.395
- OD Values at 532 nm (lipid peroxidation) [3]: 1.119
- SOD activity in liver [4]: 0.98 U/gm tissue
- aberrant metabolite formation of CoQH2 in the presence of 3,8-(OH)2-DBP, in words [5]: did not form any aberrant metabolite for a long time
- Relative percentage of aberrant metabolites in presence of 3,8-(OH)2-DBP ([5]; pH 8, 0 minutes): 0%
- Relative percentage of aberrant metabolites in presence of 3,8-(OH)2-DBP ([5]; pH 8, 40 minutes): 0%
- Relative percentage of aberrant metabolites in presence of 3,8-(OH)2-DBP ([5]; pH 8, 80 minutes): 0%
- Regenerated CoQ10 in presence of 3,8-(OH)2-DBP ([6]; autoxidation of CoQH2, pH 8, 0 min): 0 µg/mL
- Regenerated CoQ10 in presence of 3,8-(OH)2-DBP ([6]; autoxidation of CoQH2, pH 8, 20 min): 10.63 µg/mL
- Regenerated CoQ10 in presence of 3,8-(OH)2-DBP ([6]; autoxidation of CoQH2, pH 8, 40 min): 37.37 µg/mL
- Regenerated CoQ10 in presence of 3,8-(OH)2-DBP ([6]; autoxidation of CoQH2, pH 8, 60 min): 99.55 µg/mL
- Reduced CoQ10 remaining in presence of DBP ([6]; pH 3, 0 hour): 100.00%
- Reduced CoQ10 remaining in presence of DBP ([6]; pH 3, 48 hour): 79.27%
- Reduced CoQ10 remaining in presence of DBP ([6]; pH 3, 72 hour): 73.91%
- Reduced CoQ10 remaining in presence of DBP ([6]; pH 7, 0 hour): 100.00%
- Reduced CoQ10 remaining in presence of DBP ([6]; pH 7, 48 hour): 10.79%
- Reduced CoQ10 remaining in presence of DBP ([6]; pH 7, 72 hour): 6.33%
- Reduced CoQ10 remaining in presence of DBP ([6]; pH 8, 0 min, DBP 0.5 mg/ml): 100.00%
- Reduced CoQ10 remaining in presence of DBP ([6]; pH 8, 40 min, DBP 0.5 mg/ml): 93.44%
- Reduced CoQ10 remaining in presence of DBP ([6]; pH 8, 60 min, DBP 0.5 mg/ml): 80.21%
- Reduced CoQ10 remaining in presence of DBP ([6]; pH 8, 80 min, DBP 0.5 mg/ml): 66.57%
- Reduced CoQ10 remaining in presence of DBP ([6]; pH 8, 100 min, DBP 0.5 mg/ml): 51.85%
- protection of reduced CoQ10 from oxidative degradation, in words ([6]; pH range 3 to 8): significantly protects
